According to the supplement of paper PMC13380429:

Tests used:
Settings in all cases: 72 h
Calu-3 [1] = assay: cell viability relative to DMSO; higher = less toxic
Vero E6 [2] = assay: as above
U2OS [3] = assay: as above
Caco-2 [4] = assay: as above
HepG2 [5] = assay: as above
Calu-3 [6] = assay: drug sensitivity score (DSS) for viability; higher = more toxic; extreme values may be limits of the assay
Vero E6 [7] = assay: as above
U2OS [8] = assay: as above
Caco-2 [9] = assay: as above
HepG2 [10] = assay: as above
Calu-3 [11] = assay: relative viability EC50 (midpoint between 100% and the lowest measured viability); higher = less toxic
Vero E6 [12] = assay: as above
U2OS [13] = assay: as above
Caco-2 [14] = assay: as above
HepG2 [15] = assay: as above

| Compound | cell viability (Calu-3 [1]; 1 nM) | cell viability (Calu-3 [1]; 10 nM) | cell viability (Calu-3 [1]; 100 nM) | cell viability (Calu-3 [1]; 1000 nM) | cell viability (Calu-3 [1]; 10000 nM) | cell viability (Vero E6 [2]; 1 nM) | cell viability (Vero E6 [2]; 10 nM) | cell viability (Vero E6 [2]; 100 nM) | cell viability (Vero E6 [2]; 1000 nM) | cell viability (Vero E6 [2]; 10000 nM) | cell viability (U2OS [3]; 1 nM) | cell viability (U2OS [3]; 10 nM) | cell viability (U2OS [3]; 100 nM) | cell viability (U2OS [3]; 1000 nM) | cell viability (U2OS [3]; 10000 nM) | cell viability (Caco-2 [4]; 1 nM) | cell viability (Caco-2 [4]; 10 nM) | cell viability (Caco-2 [4]; 100 nM) | cell viability (Caco-2 [4]; 1000 nM) | cell viability (Caco-2 [4]; 10000 nM) | cell viability (HepG2 [5]; 1 nM) | cell viability (HepG2 [5]; 10 nM) | cell viability (HepG2 [5]; 100 nM) | cell viability (HepG2 [5]; 1000 nM) | cell viability (HepG2 [5]; 10000 nM) | drug sensitivity score (Calu-3 [6]) | drug sensitivity score (Vero E6 [7]) | drug sensitivity score (U2OS [8]) | drug sensitivity score (Caco-2 [9]) | drug sensitivity score (HepG2 [10]) | relative viability EC50 (Calu-3 [11]) | relative viability EC50 (Vero E6 [12]) | relative viability EC50 (U2OS [13]) | relative viability EC50 (Caco-2 [14]) | relative viability EC50 (HepG2 [15]) |
| --- | --- | --- | --- | --- | --- | --- | --- | --- | --- | --- | --- | --- | --- | --- | --- | --- | --- | --- | --- | --- | --- | --- | --- | --- | --- | --- | --- | --- | --- | --- | --- | --- | --- | --- | --- |
| C/C=C(/C(=C/C)c1ccc(O)cc1)c1ccc(O)cc1 [dienestrol] | 98.1% | 91.4% | 92.4% | 84% | 95.7% | 101% | 107% | 101% | 104% | 94.3% | 106% | 108% | 107% | 99.9% | 109% | 112% | 96.5% | 105% | 106% | 102% | 101% | 100% | 98.4% | 110% | 95.3% | 0 | 0 | 0 | 0 | 0 | > 10 µM | > 10 µM | > 10 µM | > 10 µM | > 10 µM |
| CCNC(=O)Nc1ccc(-c2nc3c(c(N4CCOC[C@@H]4C)n2)CCN(C2COC2)C3)cc1 [GDC-0349] | 101% | 100% | 79% | 39.5% | 29.5% | 106% | 105% | 94.2% | 81.2% | 40.3% | 102% | 98.9% | 94.6% | 66.2% | 21.1% | 107% | 95.7% | 82.3% | 51.7% | 35% | 114% | 99.8% | 95.9% | 49% | 26.3% | 13.7 | 5.6 | 8.3 | 11.1 | 10.4 | 0.211 µM | 1.46 µM | 1.17 µM | 0.295 µM | 0.6 µM |
| NC(=O)NO [hydroxyurea] | 104% | 89.4% | 99% | 103% | 95.2% | 95.6% | 101% | 101% | 97.1% | 112% | 97.1% | 98.2% | 102% | 96% | 99.8% | 96.5% | 87% | 103% | 77.9% | 94.1% | 106% | 81.9% | 125% | 115% | 103% | 0 | 0 | 0 | 0.1 | 0 | > 10 µM | > 10 µM | > 10 µM | > 10 µM | > 10 µM |
| CC(C)c1c(NC(=O)Nc2ccc(Cl)cc2)c(=O)n(-c2ccccc2)n1C [TC-FPR-43] | 106% | 102% | 100% | 105% | 96.5% | 96.7% | 96.8% | 94.2% | 96.9% | 92.4% | 97.1% | 103% | 99.3% | 107% | 93.2% | 98.8% | 105% | 102% | 98.6% | 99.2% | 90.9% | 105% | 101% | 94.3% | 94.5% | 0 | 0 | 0 | 0 | 0 | > 10 µM | > 10 µM | > 10 µM | > 10 µM | > 10 µM |
| CCOc1cncc(/C=C/CCNC)c1 [TC2559] | 87.6% | 98.9% | 98.2% | 95.9% | 109% | 94.1% | 94.5% | 89.2% | 90.2% | 110% | 101% | 102% | 97% | 101% | 104% | 97.9% | 99.4% | 100% | 108% | 102% | 100% | 93.1% | 110% | 96.7% | 117% | 0 | 0 | 0 | 0 | 0 | > 10 µM | > 10 µM | > 10 µM | > 10 µM | > 10 µM |
| CCOC(=O)[C@@H](N)Cc1ccc(O)c(O)c1 [etilevodopa] | 103% | 95.6% | 92.2% | 88.8% | 94% | 101% | 89.7% | 89.7% | 98.9% | 111% | 92.6% | 95.7% | 98.3% | 96.3% | 99.3% | 94% | 107% | 84.2% | 85.8% | 92.8% | 86.2% | 96% | 88.1% | 99.1% | 92.5% | 0.3 | 0 | 0 | 2.8 | 0 | > 10 µM | > 10 µM | > 10 µM | > 10 µM | > 10 µM |
| CC(=O)OCC(CCn1cnc2cnc(N)nc21)COC(C)=O [famciclovir] | 104% | 99.4% | 91.1% | 106% | 93.9% | 99.7% | 102% | 98.7% | 96.9% | 100% | 100% | 104% | 95% | 102% | 95.5% | 91.3% | 101% | 105% | 87.4% | 82.8% | 103% | 98.4% | 103% | 96.8% | 100% | 0 | 0 | 0 | 1.4 | 0 | > 10 µM | > 10 µM | > 10 µM | > 10 µM | > 10 µM |
| O=S(=O)(O)c1ccc2[nH]c(-c3ccccc3)nc2c1 [phenylbenzimidazole-sulfonic-acid] | 111% | 112% | 106% | 105% | 89.2% | 96.3% | 89.7% | 97.3% | 96.7% | 107% | 97.9% | 96.7% | 103% | 99.3% | 99.4% | 98.9% | 95.8% | 90.3% | 93% | 96.8% | 85.6% | 93% | 93.2% | 94.3% | 99.2% | 0 | 0 | 0 | 0 | 0 | > 10 µM | > 10 µM | > 10 µM | > 10 µM | > 10 µM |
| CCN(CC)CC1CCCCN1CC(=O)N1c2ccccc2C(=O)Nc2cccnc21 (stereo not given) [otenzepad] | 102% | 105% | 96% | 96.3% | 101% | 97.8% | 97% | 95.7% | 92.4% | 99.5% | 100% | 102% | 102% | 100% | 97.4% | 104% | 104% | 108% | 97.6% | 98.8% | 94.3% | 104% | 92.3% | 101% | 98.9% | 0 | 0 | 0 | 0 | 0 | > 10 µM | > 10 µM | > 10 µM | > 10 µM | > 10 µM |
| CN1CCc2c(c3ccccc3n2Cc2ccccc2)C1 [mebhydrolin] | 106% | 95.8% | 106% | 104% | 104% | 106% | 99.4% | 99.9% | 94.1% | 89.6% | 96.5% | 102% | 98.5% | 98.2% | 95.3% | 90.3% | 92.8% | 90.4% | 101% | 100% | 94.3% | 102% | 106% | 77% | 94.2% | 0 | 0 | 0 | 0 | 3.1 | > 10 µM | > 10 µM | > 10 µM | > 10 µM | > 10 µM |
| NCCS(=O)(=O)O [taurine] | 100% | 106% | 102% | 97.6% | 101% | 94.5% | 95.3% | 95.1% | 89.1% | 106% | 94.4% | 100% | 98.9% | 103% | 101% | 94.9% | 99.3% | 98% | 95.6% | 103% | 110% | 99.4% | 101% | 102% | 104% | 0 | 0 | 0 | 0 | 0 | > 10 µM | > 10 µM | > 10 µM | > 10 µM | > 10 µM |
| COC1CCN(C(=O)c2cc(Cc3n[nH]c(=O)c4ccccc34)ccc2F)CC1 [AZD2461] | 86.7% | 100% | 79.8% | 69.5% | 92.5% | 99.3% | 97% | 99.7% | 97.9% | 99.9% | 94.4% | 96% | 99.1% | 94.4% | 100% | 90.3% | 97.5% | 95.5% | 100% | 93.6% | 99.5% | 86% | 85.5% | 93.8% | 87.2% | 0 | 0 | 0 | 0 | 3.4 | > 10 µM | > 10 µM | > 10 µM | > 10 µM | > 10 µM |
| O=C1c2c(O)cccc2Cc2cccc(O)c21 [anthralin] | 103% | 98.5% | 89.8% | 95.9% | 108% | 102% | 88.7% | 96% | 78.3% | 100% | 92.3% | 97.6% | 97% | 98.8% | 102% | 102% | 95.8% | 97.3% | 96.9% | 93.4% | 90.2% | 103% | 119% | 105% | 92.3% | 0 | 0 | 0 | 0 | 0 | > 10 µM | > 10 µM | > 10 µM | > 10 µM | > 10 µM |
| Nc1nc2[nH]cnc2c(=S)[nH]1 [thioguanine] | 99.6% | 103% | 95% | 94.8% | 80.5% | 96.6% | 103% | 92.3% | 97.5% | 19.2% | 104% | 98.5% | 94% | 67.4% | 25.1% | 101% | 90.1% | 94.6% | 76.2% | 43.4% | 88.1% | 99% | 86.2% | 84.1% | 19.2% | 0.9 | 4.8 | 7.9 | 5.7 | 7.1 | > 10 µM | 2.94 µM | 1.16 µM | 1.19 µM | 1.75 µM |
